According to paper PMC5218480 (PLoS ONE, 2017):

Test system: MV-4-11 cells
Assay: Gene expression microarray analysis (Affymetrix PrimeView) and GSEA
Assay type: cell-based, human
Set-up: RFU PODN (11730768_x_at) / Fold change /veh PODN (11730768_x_at) / RFU LINC00158 (11744669_a_at) / Fold change /veh LINC00158 (11744669_a_at) / RFU DUSP10 (11751237_a_at) / Fold change /veh DUSP10 (11751237_a_at) / RFU ID3 (11757404_x_at) / Fold change /veh ID3 (11757404_x_at) / RFU PLEKHG5 (11737974_s_at) / Fold change /veh PLEKHG5 (11737974_s_at) / RFU LRRC4B (11730491_at) / Fold change /veh LRRC4B (11730491_at) / RFU GIMAP4 (11747438_a_at) / Fold change /veh GIMAP4 (11747438_a_at) / RFU KRT8 (11758183_x_at) / Fold change /veh KRT8 (11758183_x_at) / RFU CNN1 (11734310_a_at) / Fold change /veh CNN1 (11734310_a_at) / RFU VPS37D (11726825_at) / Fold change /veh VPS37D (11726825_at) / RFU C10orf10 (11716522_x_at) / Fold change /veh C10orf10 (11716522_x_at) / RFU KIR2DL2 /// KIR2DL4 /// KIR2DL5A /// KIR2DL5B /// KIR2DS1 /// KIR2DS2 /// KIR2DS3 /// KIR2DS4 /// KIR3DL3 /// KIR3DL3 /// KIR3DS1 (11738374_at) / Fold change /veh KIR2DL2 /// KIR2DL4 /// KIR2DL5A /// KIR2DL5B /// KIR2DS1 /// KIR2DS2 /// KIR2DS3 /// KIR2DS4 /// KIR3DL3 /// KIR3DL3 /// KIR3DS1 (11738374_at) / RFU C1QL1 (11718748_at) / Fold change /veh C1QL1 (11718748_at) / RFU TMPRSS4 (11747572_a_at) / Fold change /veh TMPRSS4 (11747572_a_at) / RFU HAMP (11756126_x_at) / Fold change /veh HAMP (11756126_x_at) / RFU RNFT2 (11725882_a_at) / Fold change /veh RNFT2 (11725882_a_at) / RFU NR4A2 (11747474_a_at) / Fold change /veh NR4A2 (11747474_a_at) / RFU ABCC12 (11746883_a_at) / Fold change /veh ABCC12 (11746883_a_at) / RFU TMEM136 (11760407_x_at) / Fold change /veh TMEM136 (11760407_x_at) / RFU CLDN22 /// WWC2 (11732394_at) / Fold change /veh CLDN22 /// WWC2 (11732394_at) / RFU HLA-DPB1 (11760878_x_at) / Fold change /veh HLA-DPB1 (11760878_x_at) / RFU SPINT1 (11716480_a_at) / Fold change /veh SPINT1 (11716480_a_at) / RFU GAP43 (11754022_s_at) / Fold change /veh GAP43 (11754022_s_at) / RFU A4GNT (11735810_at) / Fold change /veh A4GNT (11735810_at) / RFU PRB3 (11715151_x_at) / Fold change /veh PRB3 (11715151_x_at) / RFU TUBB4B (11761932_at) / Fold change /veh TUBB4B (11761932_at) / RFU CAPN14 (11732068_a_at) / Fold change /veh CAPN14 (11732068_a_at) / RFU TMCC2 (11721928_a_at) / Fold change /veh TMCC2 (11721928_a_at) / RFU IRGQ (11745062_a_at) / Fold change /veh IRGQ (11745062_a_at) / RFU FAM174B (11720279_a_at) / Fold change /veh FAM174B (11720279_a_at) / RFU TMPRSS4 (11748680_a_at) / Fold change /veh TMPRSS4 (11748680_a_at) / RFU FAM212B (11763350_a_at) / Fold change /veh FAM212B (11763350_a_at) / RFU PLEKHG5 (11743358_a_at) / Fold change /veh PLEKHG5 (11743358_a_at) / RFU ZSCAN30 (11745921_a_at) / Fold change /veh ZSCAN30 (11745921_a_at) / RFU CMKLR1 (11741424_a_at) / Fold change /veh CMKLR1 (11741424_a_at) / RFU LOC101060620 /// MAPK8IP1 (11723275_at) / Fold change /veh LOC101060620 /// MAPK8IP1 (11723275_at) / RFU SPTSSB (11747773_x_at) / Fold change /veh SPTSSB (11747773_x_at) / RFU PRSS12 (11739890_at) / Fold change /veh PRSS12 (11739890_at) / RFU BIN1 (11741810_x_at) / Fold change /veh BIN1 (11741810_x_at) / RFU WNT11 (11732464_a_at) / Fold change /veh WNT11 (11732464_a_at) / RFU C10orf10 (11716521_a_at) / Fold change /veh C10orf10 (11716521_a_at) / RFU C5orf56 (11738089_at) / Fold change /veh C5orf56 (11738089_at) / RFU CYB561 (11721691_x_at) / Fold change /veh CYB561 (11721691_x_at) / RFU ANKRD19P (11752326_a_at) / Fold change /veh ANKRD19P (11752326_a_at) / RFU OR2T12 /// OR2T33 /// OR2T8 (11738714_s_at) / Fold change /veh OR2T12 /// OR2T33 /// OR2T8 (11738714_s_at) / RFU VCAN (11748164_a_at) / Fold change /veh VCAN (11748164_a_at) / RFU JSRP1 (11732532_at) / Fold change /veh JSRP1 (11732532_at) / RFU KRTAP10-11 (11738290_x_at) / Fold change /veh KRTAP10-11 (11738290_x_at) / RFU MYO3A (11730013_a_at) / Fold change /veh MYO3A (11730013_a_at) / RFU EBF3 (11725865_a_at) / Fold change /veh EBF3 (11725865_a_at) / RFU CAMK2N1 (11719241_x_at) / Fold change /veh CAMK2N1 (11719241_x_at) / RFU C5orf56 (11738088_a_at) / Fold change /veh C5orf56 (11738088_a_at) / RFU OLFML3 (11715873_a_at) / Fold change /veh OLFML3 (11715873_a_at) / RFU LOC100653217 /// NTM (11731650_a_at) / Fold change /veh LOC100653217 /// NTM (11731650_a_at) / RFU MAPK11 (11762145_a_at) / Fold change /veh MAPK11 (11762145_a_at) / RFU FIZ1 (11724087_x_at) / Fold change /veh FIZ1 (11724087_x_at) / RFU OASL (11726364_x_at) / Fold change /veh OASL (11726364_x_at) / RFU SOX15 (11748057_x_at) / Fold change /veh SOX15 (11748057_x_at) / RFU CD79A (11719716_a_at) / Fold change /veh CD79A (11719716_a_at) / RFU HIST1H1D (11736915_at) / Fold change /veh HIST1H1D (11736915_at) / RFU CASKIN2 (11723855_a_at) / Fold change /veh CASKIN2 (11723855_a_at) / RFU LOC730098 (11760151_x_at) / Fold change /veh LOC730098 (11760151_x_at) / RFU OR4N2 (11742367_at) / Fold change /veh OR4N2 (11742367_at) / RFU PRRT2 (11749266_a_at) / Fold change /veh PRRT2 (11749266_a_at) / RFU SNX32 (11753110_a_at) / Fold change /veh SNX32 (11753110_a_at) / RFU CDHR5 (11726645_a_at) / Fold change /veh CDHR5 (11726645_a_at) / RFU RCAN1 (11760418_a_at) / Fold change /veh RCAN1 (11760418_a_at) / RFU FAM167A (11723789_a_at) / Fold change /veh FAM167A (11723789_a_at) / RFU FAM26E (11764081_at) / Fold change /veh FAM26E (11764081_at) / RFU ISYNA1 (11749810_s_at) / Fold change /veh ISYNA1 (11749810_s_at) / RFU ACY1 (11761880_at) / Fold change /veh ACY1 (11761880_at) / RFU 11764098_at / Fold change /veh 11764098_at / RFU SAMD14 (11745864_x_at) / Fold change /veh SAMD14 (11745864_x_at) / RFU NPB (11741838_a_at) / Fold change /veh NPB (11741838_a_at) / RFU TMPRSS6 (11731388_a_at) / Fold change /veh TMPRSS6 (11731388_a_at) / RFU KRTAP10-2 (11738614_at) / Fold change /veh KRTAP10-2 (11738614_at) / RFU ARHGAP8 /// PRR5-ARHGAP8 (11727945_x_at) / Fold change /veh ARHGAP8 /// PRR5-ARHGAP8 (11727945_x_at) / RFU KRTAP5-7 /// NADSYN1 (11734609_at) / Fold change /veh KRTAP5-7 /// NADSYN1 (11734609_at) / RFU RASL12 (11751679_a_at) / Fold change /veh RASL12 (11751679_a_at) / RFU CDKN2B (11736163_a_at) / Fold change /veh CDKN2B (11736163_a_at) / RFU PRF1 (11729649_at) / Fold change /veh PRF1 (11729649_at) / RFU, ZNF638 /// ZNF638-IT1 / Fold change vs veh, ZNF638 /// ZNF638-IT1 / RFU, PANK3 / Fold change vs veh, PANK3 / RFU, SH3YL1 / Fold change vs veh, SH3YL1 / RFU, ZEB2 / Fold change vs veh, ZEB2 / RFU, NRIP1 / Fold change vs veh, NRIP1 / RFU, PTTG1IP / Fold change vs veh, PTTG1IP / RFU, CAPN2 / Fold change vs veh, CAPN2 / RFU, MED14 / Fold change vs veh, MED14 / RFU, SNORA58 / Fold change vs veh, SNORA58 / RFU, C1orf63 / Fold change vs veh, C1orf63 / RFU, LRRFIP1 / Fold change vs veh, LRRFIP1 / RFU, NDUFAF7 / Fold change vs veh, NDUFAF7 / RFU, SLC12A2 / Fold change vs veh, SLC12A2 / RFU, IBTK / Fold change vs veh, IBTK / RFU, ESF1 / Fold change vs veh, ESF1 / Fold change vs veh, TMEM50B / RFU, TAOK1 / Fold change vs veh, TAOK1 / RFU, ACBD3 / Fold change vs veh, ACBD3 / RFU, TMA16 / Fold change vs veh, TMA16 / RFU, RWDD3 / Fold change vs veh, RWDD3 / RFU, BCAT1 / Fold change vs veh, BCAT1 / RFU, EDEM3 / Fold change vs veh, EDEM3 / RFU, TMEM33 / Fold change vs veh, TMEM33 / RFU, WDR75 / Fold change vs veh, WDR75 / RFU, AHCTF1 / Fold change vs veh, AHCTF1 / RFU, TFRC / Fold change vs veh, TFRC / RFU, ZDHHC17 / Fold change vs veh, ZDHHC17 / RFU, NOM1 / Fold change vs veh, NOM1 / RFU, ARL8B / Fold change vs veh, ARL8B / RFU, ZBTB11 / Fold change vs veh, ZBTB11 / RFU, TAMM41 / Fold change vs veh, TAMM41 / RFU, KIAA1704 /// LOC100996395 / Fold change vs veh, KIAA1704 /// LOC100996395 / RFU, ING1 / Fold change vs veh, ING1 / RFU, TRMT61B / Fold change vs veh, TRMT61B / RFU, FUBP3 / Fold change vs veh, FUBP3 / RFU, TP53 / Fold change vs veh, TP53 / RFU, TNKS2 / Fold change vs veh, TNKS2 / RFU, ZFP14 / Fold change vs veh, ZFP14 / RFU, ACTR2 / Fold change vs veh, ACTR2 / RFU, PPP3R1 / Fold change vs veh, PPP3R1 / RFU, PIK3R1 / Fold change vs veh, PIK3R1 / RFU, HNRNPA1 / Fold change vs veh, HNRNPA1 / RFU, RNF170 / Fold change vs veh, RNF170 / RFU, ZNF28 / Fold change vs veh, ZNF28 / RFU, RNGTT / Fold change vs veh, RNGTT / RFU, OGT / Fold change vs veh, OGT / RFU, BRD1 / Fold change vs veh, BRD1 / RFU, MARS / Fold change vs veh, MARS / RFU, ZNF655 / Fold change vs veh, ZNF655 / RFU, FAHD1 / Fold change vs veh, FAHD1 / RFU, BDP1 / Fold change vs veh, BDP1 / RFU, LRRCC1 / Fold change vs veh, LRRCC1 / RFU, ARID1A / Fold change vs veh, ARID1A / RFU, ZNF146 / Fold change vs veh, ZNF146 / RFU, ZNF330 / Fold change vs veh, ZNF330 / RFU, GPN3 / Fold change vs veh, GPN3 / RFU, C9orf123 / Fold change vs veh, C9orf123 / RFU, N4BP2L2 / Fold change vs veh, N4BP2L2 / RFU, ARFIP1 / Fold change vs veh, ARFIP1 / RFU, FAM179B / Fold change vs veh, FAM179B / RFU, BCL10 / Fold change vs veh, BCL10 / RFU, UHRF1BP1L / Fold change vs veh, UHRF1BP1L / RFU, BET1 / Fold change vs veh, BET1 / RFU, CNOT2 / Fold change vs veh, CNOT2 / RFU, ZNF268 / Fold change vs veh, ZNF268 / Fold change vs veh, ZNF507 / RFU, DGCR2 / Fold change vs veh, DGCR2 / RFU, WDSUB1 / Fold change vs veh, WDSUB1 / Fold change vs veh, HSP90B1 /// MIR3652 / RFU, ADSS / Fold change vs veh, ADSS / RFU, GK / Fold change vs veh, GK / RFU, ZNF148 / Fold change vs veh, ZNF148 / RFU, TAF9 / Fold change vs veh, TAF9 / RFU, SLC1A5 / Fold change vs veh, SLC1A5 / RFU, SLMO2 / Fold change vs veh, SLMO2 / RFU, ABCC4 / Fold change vs veh, ABCC4 / RFU, LOC101060439 /// RAP1B / Fold change vs veh, LOC101060439 /// RAP1B / RFU, RFX7 / Fold change vs veh, RFX7 / RFU, GTPBP10 / Fold change vs veh, GTPBP10 / RFU, CNEP1R1 / Fold change vs veh, CNEP1R1 / RFU, BIVM-ERCC5 /// ERCC5 / Fold change vs veh, BIVM-ERCC5 /// ERCC5 / RFU, ILF3 / Fold change vs veh, ILF3 / RFU 11762660_at / Fold change /veh 11762660_at / RFU VCAN (11757783_s_at) / Fold change /veh VCAN (11757783_s_at) / RFU DDX43 (11728927_at) / Fold change /veh DDX43 (11728927_at) / RFU KRT8 (11758188_x_at) / Fold change /veh KRT8 (11758188_x_at) / RFU NKD1 (11759106_at) / Fold change /veh NKD1 (11759106_at) / RFU SRD5A1 (11742802_a_at) / Fold change /veh SRD5A1 (11742802_a_at) / RFU TPSAB1 /// TPSB2 (11721975_s_at) / Fold change /veh TPSAB1 /// TPSB2 (11721975_s_at) / RFU GSTM3 (11746129_a_at) / Fold change /veh GSTM3 (11746129_a_at) / RFU IL23R (11737362_x_at) / Fold change /veh IL23R (11737362_x_at) / RFU TMEM51 (11727254_a_at) / Fold change /veh TMEM51 (11727254_a_at) / RFU PIWIL2 (11732686_x_at) / Fold change /veh PIWIL2 (11732686_x_at) / RFU ORM1 (11744905_x_at) / Fold change /veh ORM1 (11744905_x_at) / RFU CCDC152 (11743942_at) / Fold change /veh CCDC152 (11743942_at) / RFU ECM1 (11717891_a_at) / Fold change /veh ECM1 (11717891_a_at) / RFU IL23R (11748794_a_at) / Fold change /veh IL23R (11748794_a_at) / RFU TNFAIP8L3 (11732012_x_at) / Fold change /veh TNFAIP8L3 (11732012_x_at) / RFU MBOAT4 (11741988_at) / Fold change /veh MBOAT4 (11741988_at) / RFU 11764193_at / Fold change /veh 11764193_at / RFU TMEM53 (11763286_at) / Fold change /veh TMEM53 (11763286_at) / RFU MAGEB2 (11727129_at) / Fold change /veh MAGEB2 (11727129_at) / RFU TMEM200A (11744735_a_at) / Fold change /veh TMEM200A (11744735_a_at) / RFU CCDC152 (11751479_a_at) / Fold change /veh CCDC152 (11751479_a_at) / RFU FAM211A (11726209_a_at) / Fold change /veh FAM211A (11726209_a_at) / RFU RGS16 (11746705_a_at) / Fold change /veh RGS16 (11746705_a_at) / RFU VCAN (11755009_s_at) / Fold change /veh VCAN (11755009_s_at) / RFU RHOB (11743442_s_at) / Fold change /veh RHOB (11743442_s_at) / RFU RGS16 (11720943_a_at) / Fold change /veh RGS16 (11720943_a_at) / RFU RGS16 (11720944_at) / Fold change /veh RGS16 (11720944_at) / RFU, VPS4B / Fold change vs veh, VPS4B / RFU, CREB1 / Fold change vs veh, CREB1 / RFU, DNAJC13 / Fold change vs veh, DNAJC13 / RFU, GNAQ / Fold change vs veh, GNAQ / RFU, CDK5R1 / Fold change vs veh, CDK5R1 / RFU, ZRANB3 / Fold change vs veh, ZRANB3 / RFU, CUL4A / Fold change vs veh, CUL4A / RFU, CCNY / Fold change vs veh, CCNY / RFU, UFL1 / Fold change vs veh, UFL1 / RFU, COG3 / Fold change vs veh, COG3 / RFU, DIAPH2 / Fold change vs veh, DIAPH2 / RFU, SKA2 / Fold change vs veh, SKA2 / RFU, AFF3 / Fold change vs veh, AFF3 / RFU, LMF1 / Fold change vs veh, LMF1 / RFU, IPO11 / Fold change vs veh, IPO11 / RFU, DFFB / Fold change vs veh, DFFB / RFU, FOXP1 / Fold change vs veh, FOXP1 / RFU, CARD8 / Fold change vs veh, CARD8 / RFU, STRN3 / Fold change vs veh, STRN3 / RFU, ADK / Fold change vs veh, ADK / RFU, RASSF2 / Fold change vs veh, RASSF2 / RFU, WIPF1 / Fold change vs veh, WIPF1 / RFU, LARP1B / Fold change vs veh, LARP1B / RFU, RASA1 / Fold change vs veh, RASA1 / RFU, RB1 / Fold change vs veh, RB1 / RFU, PPFIA1 / Fold change vs veh, PPFIA1 / RFU, MAT2A / Fold change vs veh, MAT2A / RFU, CCT5 / Fold change vs veh, CCT5 / RFU, WDR92 / Fold change vs veh, WDR92 / RFU, CUX1 / Fold change vs veh, CUX1 / RFU, TTC7A / Fold change vs veh, TTC7A / RFU, TMEM135 / Fold change vs veh, TMEM135 / RFU, DEPTOR / Fold change vs veh, DEPTOR / RFU, CPM / Fold change vs veh, CPM / RFU, DNAJB6 / Fold change vs veh, DNAJB6 / RFU, CACNA2D3 / Fold change vs veh, CACNA2D3 / RFU, DTX4 / Fold change vs veh, DTX4 / RFU, TFCP2 / Fold change vs veh, TFCP2 / RFU, GMCL1 /// GMCL1P1 / Fold change vs veh, GMCL1 /// GMCL1P1 / RFU, AEBP2 / Fold change vs veh, AEBP2 / RFU, SNHG1 /// SNORD22 /// SNORD25 /// SNORD26 /// SNORD27 /// SNORD28 /// SNORD29 /// SNORD31 / Fold change vs veh, SNHG1 /// SNORD22 /// SNORD25 /// SNORD26 /// SNORD27 /// SNORD28 /// SNORD29 /// SNORD31 / Fold change (Aza/veh), C12orf56 (ProbeSet 11735607_a_at) / Fold change (ACY-1035/veh), C12orf56 (ProbeSet 11735607_a_at) / Fold change (Aza/veh), FGFR1OP (ProbeSet 11751329_s_at) / Fold change (ACY-1035/veh), FGFR1OP (ProbeSet 11751329_s_at) / Fold change (Aza/veh), VPS36 (ProbeSet 11739960_a_at) / Fold change (ACY-1035/veh), VPS36 (ProbeSet 11739960_a_at) / RFU SYPL1 (11715823_x_at) / Fold change /veh SYPL1 (11715823_x_at) / RFU IGFBP7 (11715501_s_at) / Fold change /veh IGFBP7 (11715501_s_at) / RFU REEP3 (11722064_at) / Fold change /veh REEP3 (11722064_at) / RFU IGLL1 (11728026_x_at) / Fold change /veh IGLL1 (11728026_x_at): dose or concentration left out as unconfirmed
Settings: MV-4-11 cells, 48 hours

Nc1ccc(-c2cccs2)cc1NC(=O)c1ccc2c(c1)cc(C1CC1)n2CCN1CCOCC1 [ACY-1035]
Fold change /veh LOC730098 (11760151_x_at): 1.00
